According to ChEMBL document CHEMBL5465560, “Selectivity Literature for EUbOPEN Chemogenomic Library” (2024):

Tests used:
[1] = target: T1, Serine/threonine-protein kinase D3 (Homo sapiens) (UniProt O94806); test: Selectivity interaction (KinomeScan (DiscoverX)) EUB0000229b PRKD3; conditions: at 10 µM
T1 sequence (whole entry): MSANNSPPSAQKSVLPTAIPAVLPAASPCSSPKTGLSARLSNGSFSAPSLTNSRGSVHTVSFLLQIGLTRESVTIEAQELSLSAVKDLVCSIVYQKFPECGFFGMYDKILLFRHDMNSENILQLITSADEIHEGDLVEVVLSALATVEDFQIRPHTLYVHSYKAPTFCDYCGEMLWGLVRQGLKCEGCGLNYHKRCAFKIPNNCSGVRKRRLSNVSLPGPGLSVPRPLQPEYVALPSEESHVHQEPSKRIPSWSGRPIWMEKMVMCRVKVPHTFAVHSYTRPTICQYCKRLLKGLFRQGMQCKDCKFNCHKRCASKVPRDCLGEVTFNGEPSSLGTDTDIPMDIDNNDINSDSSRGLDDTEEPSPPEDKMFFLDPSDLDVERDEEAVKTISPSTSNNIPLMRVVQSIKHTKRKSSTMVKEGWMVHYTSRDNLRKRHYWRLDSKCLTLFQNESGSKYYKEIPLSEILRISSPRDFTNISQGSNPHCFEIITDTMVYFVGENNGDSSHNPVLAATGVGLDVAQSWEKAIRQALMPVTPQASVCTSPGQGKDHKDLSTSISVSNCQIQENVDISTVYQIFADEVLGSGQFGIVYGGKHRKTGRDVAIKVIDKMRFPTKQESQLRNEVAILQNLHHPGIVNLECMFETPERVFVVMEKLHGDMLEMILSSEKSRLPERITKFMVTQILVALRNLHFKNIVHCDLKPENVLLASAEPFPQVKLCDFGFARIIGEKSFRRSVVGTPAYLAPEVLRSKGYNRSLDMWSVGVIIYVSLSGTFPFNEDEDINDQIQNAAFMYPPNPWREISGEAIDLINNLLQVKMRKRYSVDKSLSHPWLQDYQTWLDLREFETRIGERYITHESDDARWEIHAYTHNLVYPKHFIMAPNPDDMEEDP

[2] = target: Tyrosine-protein kinase Fyn (Homo sapiens) (UniProt P06241); test: Selectivity interaction (Kinase panel (Z-LYTE Assay)) EUB0001632a FYN; conditions: at 10 µM
[3] = target: Protein arginine N-methyltransferase 6 (Homo sapiens, UniProt Q96LA8); test: Selectivity interaction (Methyltransferase screen (radiometric assays, panel of 8 PRMTs, 21 protein lysine methyltransferases, 3 DNA methyltransferases, and one RNA methyltransferase)) EUB0000271b PRMT6
[4] = target: Beta-2 adrenergic receptor (Homo sapiens, UniProt P07550); test: Selectivity interaction (Eurofins CEREP Diversity Profile (receptors and ion channels)) EUB0000279b ADRB2; conditions: at 10 µM
[5] = target: Casein kinase II subunit alpha (Homo sapiens, UniProt P68400); test: Selectivity interaction (Millipore kinase profiler) EUB0000124b CSNK2A1; conditions: at 10 µM
[6] = target: Nuclear receptor subfamily 1 group I member 2 (Homo sapiens, UniProt O75469); test: Selectivity interaction (PXR Receptor agonist/antagonist assay: TR-FRET human recombinant ) EUB0000877a NR1I2
[7] = target: T2, Peripheral plasma membrane protein CASK (Homo sapiens) (UniProt O14936); test: Selectivity interaction (KinomeScan (DiscoverX)) EUB0000618a CASK; conditions: at 10 µM
T2 sequence (whole entry): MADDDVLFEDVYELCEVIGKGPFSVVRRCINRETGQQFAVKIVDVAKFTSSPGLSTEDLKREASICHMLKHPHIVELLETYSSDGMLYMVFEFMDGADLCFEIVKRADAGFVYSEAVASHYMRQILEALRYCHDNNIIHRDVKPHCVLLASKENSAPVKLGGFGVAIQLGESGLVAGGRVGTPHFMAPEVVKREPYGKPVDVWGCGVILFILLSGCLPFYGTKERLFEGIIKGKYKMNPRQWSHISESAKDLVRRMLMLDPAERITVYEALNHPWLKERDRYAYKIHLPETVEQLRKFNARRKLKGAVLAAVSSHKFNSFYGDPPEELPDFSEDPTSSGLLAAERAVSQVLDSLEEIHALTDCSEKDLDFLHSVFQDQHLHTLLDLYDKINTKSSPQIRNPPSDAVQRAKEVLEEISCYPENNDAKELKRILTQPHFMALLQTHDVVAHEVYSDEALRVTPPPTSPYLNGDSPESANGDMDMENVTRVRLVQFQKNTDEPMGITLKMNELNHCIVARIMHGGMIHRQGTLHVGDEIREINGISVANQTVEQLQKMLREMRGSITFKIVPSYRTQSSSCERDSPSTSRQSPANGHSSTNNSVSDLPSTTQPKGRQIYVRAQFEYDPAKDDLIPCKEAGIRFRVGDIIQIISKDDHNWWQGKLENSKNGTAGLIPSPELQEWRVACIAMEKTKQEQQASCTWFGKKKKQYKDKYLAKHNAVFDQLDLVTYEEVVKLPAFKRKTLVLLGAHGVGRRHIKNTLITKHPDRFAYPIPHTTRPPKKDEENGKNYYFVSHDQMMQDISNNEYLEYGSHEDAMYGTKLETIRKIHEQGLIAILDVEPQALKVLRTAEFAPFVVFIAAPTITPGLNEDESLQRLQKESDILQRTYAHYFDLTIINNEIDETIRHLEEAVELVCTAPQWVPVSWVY

OATP1B1 (SLCO1B1) = OATP1B1 (SLCO1B1) (Homo sapiens, UniProt Q9Y6L6); test: Selectivity interaction (Panel of kinases, GPCRs, ion channels and transporters (enzymatic assay)) EUB0000266bCl SLCO1B1; conditions: not told
[8] = target: Glycogen synthase kinase-3 alpha (Homo sapiens, UniProt P49840); test: Selectivity interaction (KinomeScan (DiscoverX)) EUB0000092b GSK3A; conditions: at 10 µM
[9] = target: Serine/threonine-protein kinase tousled-like 2 (Homo sapiens) (UniProt Q86UE8); test: Selectivity interaction (KinomeScan (DiscoverX)) EUB0000092b TLK2; conditions: at 10 µM
Serine/threonine-protein kinase tousled-like 2 (Homo sapiens), sequence (Q86UE8 whole entry, looked up): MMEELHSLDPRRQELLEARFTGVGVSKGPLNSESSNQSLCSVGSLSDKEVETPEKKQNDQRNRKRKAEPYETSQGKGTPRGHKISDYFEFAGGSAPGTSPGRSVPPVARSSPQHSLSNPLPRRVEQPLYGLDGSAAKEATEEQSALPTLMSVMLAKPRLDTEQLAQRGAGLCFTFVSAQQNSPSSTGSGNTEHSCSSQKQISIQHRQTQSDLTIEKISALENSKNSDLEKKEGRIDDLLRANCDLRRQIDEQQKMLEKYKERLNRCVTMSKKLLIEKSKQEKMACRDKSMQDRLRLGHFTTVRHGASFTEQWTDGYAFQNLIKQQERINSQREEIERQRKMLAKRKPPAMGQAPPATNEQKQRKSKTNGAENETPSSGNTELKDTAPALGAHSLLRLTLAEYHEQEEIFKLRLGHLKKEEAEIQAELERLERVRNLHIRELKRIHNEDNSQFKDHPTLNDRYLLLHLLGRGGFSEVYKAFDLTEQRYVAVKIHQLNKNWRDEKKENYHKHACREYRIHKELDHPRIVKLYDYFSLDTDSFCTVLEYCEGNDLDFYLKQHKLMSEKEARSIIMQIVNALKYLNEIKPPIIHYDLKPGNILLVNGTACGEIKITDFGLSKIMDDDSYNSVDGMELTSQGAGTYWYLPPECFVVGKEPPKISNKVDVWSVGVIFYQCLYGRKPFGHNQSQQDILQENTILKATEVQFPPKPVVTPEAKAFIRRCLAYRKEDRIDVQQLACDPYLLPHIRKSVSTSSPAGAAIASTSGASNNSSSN

Protein arginine N-methyltransferase 6, sequence (Q96LA8 whole entry, looked up): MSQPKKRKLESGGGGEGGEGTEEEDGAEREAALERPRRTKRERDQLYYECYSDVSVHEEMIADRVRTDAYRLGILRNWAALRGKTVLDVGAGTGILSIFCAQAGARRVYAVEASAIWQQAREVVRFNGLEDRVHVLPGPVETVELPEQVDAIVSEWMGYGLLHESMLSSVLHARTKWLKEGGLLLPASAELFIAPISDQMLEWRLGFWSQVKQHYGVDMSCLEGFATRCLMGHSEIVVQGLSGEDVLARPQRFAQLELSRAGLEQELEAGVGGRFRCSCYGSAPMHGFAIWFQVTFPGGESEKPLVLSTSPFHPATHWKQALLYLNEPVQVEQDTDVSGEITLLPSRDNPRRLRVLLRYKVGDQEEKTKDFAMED
Nuclear receptor subfamily 1 group I member 2, sequence (O75469 whole entry): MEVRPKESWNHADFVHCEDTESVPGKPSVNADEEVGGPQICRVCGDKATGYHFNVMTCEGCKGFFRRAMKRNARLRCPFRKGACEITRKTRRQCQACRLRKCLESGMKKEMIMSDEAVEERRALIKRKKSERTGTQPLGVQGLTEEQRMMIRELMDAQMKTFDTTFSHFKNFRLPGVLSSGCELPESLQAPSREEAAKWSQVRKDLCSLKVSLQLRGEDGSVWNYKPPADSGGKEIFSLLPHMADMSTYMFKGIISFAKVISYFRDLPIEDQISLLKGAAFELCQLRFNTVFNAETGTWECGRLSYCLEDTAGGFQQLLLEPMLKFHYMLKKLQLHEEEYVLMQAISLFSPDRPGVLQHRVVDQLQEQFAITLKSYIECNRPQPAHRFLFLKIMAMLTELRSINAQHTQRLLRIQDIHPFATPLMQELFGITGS
Casein kinase II subunit alpha, sequence (P68400 whole entry, looked up): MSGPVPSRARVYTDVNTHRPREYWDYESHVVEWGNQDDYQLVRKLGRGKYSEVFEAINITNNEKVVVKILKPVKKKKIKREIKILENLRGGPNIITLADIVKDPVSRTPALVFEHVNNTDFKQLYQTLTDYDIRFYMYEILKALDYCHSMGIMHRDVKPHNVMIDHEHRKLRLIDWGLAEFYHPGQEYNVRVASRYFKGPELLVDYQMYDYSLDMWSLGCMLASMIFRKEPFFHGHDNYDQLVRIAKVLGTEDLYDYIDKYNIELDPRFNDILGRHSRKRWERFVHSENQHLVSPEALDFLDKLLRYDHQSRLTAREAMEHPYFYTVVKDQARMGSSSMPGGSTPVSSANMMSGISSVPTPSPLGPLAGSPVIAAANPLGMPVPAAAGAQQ
OATP1B1 (SLCO1B1), sequence (Q9Y6L6 whole entry): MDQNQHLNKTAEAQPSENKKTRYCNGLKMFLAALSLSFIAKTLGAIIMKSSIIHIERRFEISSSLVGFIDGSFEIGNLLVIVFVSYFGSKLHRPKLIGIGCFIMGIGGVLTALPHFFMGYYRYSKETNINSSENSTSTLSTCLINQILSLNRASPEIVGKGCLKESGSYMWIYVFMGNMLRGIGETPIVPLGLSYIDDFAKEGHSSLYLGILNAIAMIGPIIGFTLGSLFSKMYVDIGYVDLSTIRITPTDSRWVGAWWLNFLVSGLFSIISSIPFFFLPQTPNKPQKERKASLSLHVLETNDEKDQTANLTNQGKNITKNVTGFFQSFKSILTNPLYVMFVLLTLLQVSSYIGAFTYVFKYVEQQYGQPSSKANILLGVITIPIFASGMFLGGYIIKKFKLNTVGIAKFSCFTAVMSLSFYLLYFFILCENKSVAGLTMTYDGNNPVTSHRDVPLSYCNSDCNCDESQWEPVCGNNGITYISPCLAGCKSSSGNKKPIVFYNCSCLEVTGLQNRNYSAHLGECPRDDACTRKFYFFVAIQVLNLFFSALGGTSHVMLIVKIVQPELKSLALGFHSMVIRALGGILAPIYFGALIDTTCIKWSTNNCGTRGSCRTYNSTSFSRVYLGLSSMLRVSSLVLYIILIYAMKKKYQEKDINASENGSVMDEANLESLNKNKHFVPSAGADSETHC
Beta-2 adrenergic receptor, sequence (P07550 whole entry, looked up): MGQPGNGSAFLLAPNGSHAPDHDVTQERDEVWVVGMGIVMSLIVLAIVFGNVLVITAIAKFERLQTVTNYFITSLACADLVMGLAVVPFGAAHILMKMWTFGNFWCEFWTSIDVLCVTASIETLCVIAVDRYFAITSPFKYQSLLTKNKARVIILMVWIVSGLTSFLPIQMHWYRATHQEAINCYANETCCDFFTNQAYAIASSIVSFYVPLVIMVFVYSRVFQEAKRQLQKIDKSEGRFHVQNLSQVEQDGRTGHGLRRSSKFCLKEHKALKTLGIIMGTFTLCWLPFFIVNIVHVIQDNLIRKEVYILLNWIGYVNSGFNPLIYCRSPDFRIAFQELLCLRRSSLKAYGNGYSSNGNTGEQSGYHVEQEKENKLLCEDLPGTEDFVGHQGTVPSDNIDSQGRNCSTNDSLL
Tyrosine-protein kinase Fyn (Homo sapiens), sequence (P06241 2-537 limits assumed): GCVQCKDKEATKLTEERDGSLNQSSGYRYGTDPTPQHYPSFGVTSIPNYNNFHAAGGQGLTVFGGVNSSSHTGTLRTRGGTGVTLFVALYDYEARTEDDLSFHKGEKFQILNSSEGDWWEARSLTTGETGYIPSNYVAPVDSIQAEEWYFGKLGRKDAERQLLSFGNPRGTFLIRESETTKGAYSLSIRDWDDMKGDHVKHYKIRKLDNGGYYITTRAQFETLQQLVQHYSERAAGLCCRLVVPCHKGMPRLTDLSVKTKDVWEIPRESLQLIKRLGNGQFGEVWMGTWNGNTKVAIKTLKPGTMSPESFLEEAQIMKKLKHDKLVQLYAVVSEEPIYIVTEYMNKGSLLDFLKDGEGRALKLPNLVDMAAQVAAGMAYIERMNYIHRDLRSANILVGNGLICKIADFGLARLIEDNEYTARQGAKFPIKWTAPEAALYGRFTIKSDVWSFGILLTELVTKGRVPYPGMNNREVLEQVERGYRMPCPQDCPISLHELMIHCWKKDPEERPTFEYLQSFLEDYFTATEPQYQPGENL
Glycogen synthase kinase-3 alpha, sequence (P49840 2-483 limits assumed): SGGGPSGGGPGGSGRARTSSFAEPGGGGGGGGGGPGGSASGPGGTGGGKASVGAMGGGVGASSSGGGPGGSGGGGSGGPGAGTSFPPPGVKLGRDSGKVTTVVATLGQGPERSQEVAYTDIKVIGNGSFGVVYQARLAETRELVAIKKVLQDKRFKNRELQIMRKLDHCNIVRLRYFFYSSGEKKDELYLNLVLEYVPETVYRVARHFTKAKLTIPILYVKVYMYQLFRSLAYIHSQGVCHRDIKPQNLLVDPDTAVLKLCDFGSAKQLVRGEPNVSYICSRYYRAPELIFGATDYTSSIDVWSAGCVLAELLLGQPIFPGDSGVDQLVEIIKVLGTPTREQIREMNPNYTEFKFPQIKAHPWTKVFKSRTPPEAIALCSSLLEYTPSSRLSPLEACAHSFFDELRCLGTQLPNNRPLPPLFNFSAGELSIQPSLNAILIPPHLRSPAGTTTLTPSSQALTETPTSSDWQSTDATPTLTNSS

## COc1cc(N(C)c2ccnc3ccc(C(F)(F)F)cc23)cc(OC)c1OC
[1]
  % binding: 58%

## Cn1cc(-n2cnc3c(NCc4nc5cc(Cl)c(Cl)cc5[nH]4)nc(N4CCOCC4)nc32)cn1
[2]
  % of control: 1.52%

## Cc1cc(C)cc([C@@H]2c3cc(C)ccc3NC(=O)CN2C(=O)c2ccc(Br)s2)c1
[3]; at 1 µM
  % of activity: 16.7%
[3]; at 10 µM
  % of activity: 7.33%

## CC(=O)c1cc(-c2ccccc2OCC2CC2)c2ncccn12
[4]
  % of control: 99%

## CC(=O)Nc1cccc(-n2c(=O)n(C3CC3)c(=O)c3c(Nc4ccc(I)cc4F)n(C)c(=O)c(C)c32)c1
[5]
  % of control: 101%

## CCC(=O)N1CC[C@H](Nc2ncnc3c2CN(c2cnc(OC)c(C(F)(F)F)c2)CC3)C1 [LENIOLISIB]
[6]
  IC50: > 30 µM

## O[C@H]1CC[C@H](Nc2ncc3nc(Nc4c(F)cc(F)cc4F)n([C@H]4CCOC4)c3n2)CC1
[7]
  % of control: 95%

## CCn1c(-c2nc3cc(C(=O)N4CCCC(N)C4)ccc3n2C)cc2ccccc21 (stereo unspecified)
OATP1B1 (SLCO1B1)
  XC50: > 50.1 µM

## CCC(=O)N1CCN(c2ccc(-n3c(=O)ccc4cnc5ccc(-c6cnc7ccccc7c6)cc5c43)cc2C(F)(F)F)CC1
[8]
  % of control: 93%
[9]
  % of control: 100%
